Test results published in the NIST ThermoML archive (doi:10.1021/je5005559).
± gives the expanded uncertainty stated by the source.

What was measured:
[1] = for mass density: 298.15 K, 101.33 kPa
[2] = Boiling temperature at pressure P; conditions: 101 kPa; Liquid; Distillation
[3] = refractive index (Na D-line) (dimensionless); conditions: 298.15 K; 101.33 kPa; Liquid; Standard Abbe refractometry

SMILES | mass density ([1]; Crystal, Pycnometric method) [kg/m3] | Normal melting temperature ([1]; Crystal, visual observation) [°C] | Boiling temperature at pressure P [2] [°C] | refractive index [3] | mass density ([1]; Liquid, Vibrating tube method) [kg/m3]
Oc1ccccc1O [1,2-benzenediol] | 1346 ± 3 | 105.70 ± 1.1 |  |  | 
CC(=O)CC(C)C [4-methylpentan-2-one] |  |  | 116.60 ± 0.2 | 1.3965 ± 0.0008 | 799 ± 2
